Laboratory results from patent publication US8449898B2 (priority 2007, dated 2013).
Like-named read-outs stand apart in the source and are kept apart here.

Legend:
[1] = test system: Phytophthora infestans (the causal agent of tomato late blight); assay: whole plant or invertebrate; assay type: in vivo; settings: for TLB Obsd (disease control rating): Table B; for TLB Obsd: component (b) alone
[2] = test system: Pseudoperonospora cubensis (the causal agent of cucumber downy mildew); assay: Test B: cucumber downy mildew, preventive spray on cucumber seedlings; assay type: in vivo; settings: for CDM Obsd (disease control rating): Table B
[3] = Pseudoperonospora cubensis, component (b) alone 0.4 ppm (Compound 1 0 ppm), read-out: CDM Obsd
[4] = Pseudoperonospora cubensis, component (b) alone 2 ppm (Compound 1 0 ppm), read-out: CDM Obsd
[5] = Pseudoperonospora cubensis, component (b) alone 10 ppm (Compound 1 0 ppm), read-out: CDM Obsd
[6] = Pseudoperonospora cubensis, component (b) alone 40 ppm (Compound 1 0 ppm), read-out: CDM Obsd

CSC1=N[C@@](C)(c2ccccc2)C(=O)N1Nc1ccccc1 [fenamidone]
pest or weed control at 0.08 ppm ([1]; Phytophthora infestans, read-out: TLB Obsd, component (b) alone, 0.08 ppm): 22% | pest or weed control at 0.4 ppm ([1]; Phytophthora infestans, read-out: TLB Obsd, component (b) alone, 0.4 ppm): 30% | pest or weed control at 2 ppm ([1]; Phytophthora infestans, read-out: TLB Obsd, component (b) alone, 2 ppm): 99% | pest or weed control at 10 ppm ([1]; Phytophthora infestans, read-out: TLB Obsd, component (b) alone, 10 ppm): 100% | pest or weed control at 40 ppm ([1]; Phytophthora infestans, read-out: TLB Obsd, component (b) alone, 40 ppm): 100% | pest or weed control at 0.08 µg/mL ([2]; Pseudoperonospora cubensis, component (b) alone 0.08 ppm (Compound 1 0 ppm), read-out: CDM Obsd): 65% | pest or weed control at 0.4 µg/mL [2, 3]: 47% | pest or weed control at 2 µg/mL [2, 4]: 82% | pest or weed control at 10 µg/mL [2, 5]: 100% | pest or weed control at 40 µg/mL [2, 6]: 100% | pest or weed control at 0.08 ppm ([2]; Pseudoperonospora cubensis, component (b) alone, 0.08 ppm, read-out: CDM Obsd): 0% | pest or weed control at 0.4 ppm ([2]; Pseudoperonospora cubensis, component (b) alone, 0.4 ppm, read-out: CDM Obsd): 0% | pest or weed control at 2 ppm ([2]; Pseudoperonospora cubensis, component (b) alone, 2 ppm, read-out: CDM Obsd): 85% | pest or weed control at 10 ppm ([2]; Pseudoperonospora cubensis, component (b) alone, 10 ppm, read-out: CDM Obsd): 100% | pest or weed control at 40 ppm ([2]; Pseudoperonospora cubensis, component (b) alone, 40 ppm, read-out: CDM Obsd): 100%

O=[N+]([O-])c1cc(C(F)(F)F)c(Cl)c([N+](=O)[O-])c1Nc1ncc(C(F)(F)F)cc1Cl [fluazinam]
pest or weed control at 0.4 ppm ([1]; Phytophthora infestans, read-out: TLB Obsd (disease control rating), Table C, component (b) alone 0.4 ppm): 17% | pest or weed control at 2 ppm ([1]; Phytophthora infestans, read-out: TLB Obsd (disease control rating), Table C, component (b) alone 2 ppm): 40% | pest or weed control at 10 ppm ([1]; Phytophthora infestans, read-out: TLB Obsd (disease control rating), Table C, component (b) alone 10 ppm): 80% | pest or weed control at 40 ppm ([1]; Phytophthora infestans, read-out: TLB Obsd (disease control rating), Table C, component (b) alone 40 ppm): 98% | pest or weed control at 200 ppm ([1]; Phytophthora infestans, read-out: TLB Obsd (disease control rating), Table C, component (b) alone 200 ppm): 100% | pest or weed control at 0.04 ppm ([1]; Phytophthora infestans, read-out: TLB Obsd (observed effect, tomato late blight), component (b) alone, 0.04 ppm): 23% | pest or weed control at 2 ppm ([1]; Phytophthora infestans, read-out: TLB Obsd (observed effect, tomato late blight), component (b) alone, 2 ppm): 71% | pest or weed control at 10 ppm ([1]; Phytophthora infestans, read-out: TLB Obsd (observed effect, tomato late blight), component (b) alone, 10 ppm): 99% | pest or weed control at 40 ppm ([1]; Phytophthora infestans, read-out: TLB Obsd (observed effect, tomato late blight), component (b) alone, 40 ppm): 99% | pest or weed control at 200 ppm ([1]; Phytophthora infestans, read-out: TLB Obsd (observed effect, tomato late blight), component (b) alone, 200 ppm): 100% | pest or weed control at 0.4 ppm ([2]; Pseudoperonospora cubensis, Table C, component (b) alone 0.4 ppm, read-out: CDM Obsd (disease control rating)): 57% | pest or weed control at 2 ppm ([2]; Pseudoperonospora cubensis, Table C, component (b) alone 2 ppm, read-out: CDM Obsd (disease control rating)): 60% | pest or weed control at 10 ppm ([2]; Pseudoperonospora cubensis, Table C, component (b) alone 10 ppm, read-out: CDM Obsd (disease control rating)): 91% | pest or weed control at 40 ppm ([2]; Pseudoperonospora cubensis, Table C, component (b) alone 40 ppm, read-out: CDM Obsd (disease control rating)): 100% | pest or weed control at 200 ppm ([2]; Pseudoperonospora cubensis, Table C, component (b) alone 200 ppm, read-out: CDM Obsd (disease control rating)): 100% | pest or weed control at 0.4 µg/mL [2, 3]: 47% | pest or weed control at 2 µg/mL [2, 4]: 57% | pest or weed control at 10 µg/mL [2, 5]: 92% | pest or weed control at 40 µg/mL [2, 6]: 100% | pest or weed control at 200 µg/mL ([2]; Pseudoperonospora cubensis, component (b) alone 200 ppm (Compound 1 0 ppm), read-out: CDM Obsd): 100% | pest or weed control at 0.04 ppm ([2]; Pseudoperonospora cubensis, component (b) alone, 0.04 ppm, read-out: CDM Obsd (observed effect, cucumber downy mildew)): 56% | pest or weed control at 2 ppm ([2]; Pseudoperonospora cubensis, component (b) alone, 2 ppm, read-out: CDM Obsd (observed effect, cucumber downy mildew)): 89% | pest or weed control at 10 ppm ([2]; Pseudoperonospora cubensis, component (b) alone, 10 ppm, read-out: CDM Obsd (observed effect, cucumber downy mildew)): 98% | pest or weed control at 40 ppm ([2]; Pseudoperonospora cubensis, component (b) alone, 40 ppm, read-out: CDM Obsd (observed effect, cucumber downy mildew)): 100% | pest or weed control at 200 ppm ([2]; Pseudoperonospora cubensis, component (b) alone, 200 ppm, read-out: CDM Obsd (observed effect, cucumber downy mildew)): 100%

O=C(NCc1ncc(C(F)(F)F)cc1Cl)c1c(Cl)cccc1Cl [fluopicolide]
TLB Obsd (disease control rating) ([1]; component (b) alone 0.08 ppm): 26% | TLB Obsd (disease control rating) ([1]; component (b) alone 0.4 ppm): 9% | TLB Obsd (disease control rating) ([1]; component (b) alone 2 ppm): 59% | TLB Obsd (disease control rating) ([1]; component (b) alone 10 ppm): 100% | TLB Obsd (disease control rating) ([1]; component (b) alone 40 ppm): 100% | TLB Obsd ([1]; 0.08 ppm): 7% | TLB Obsd ([1]; 0.4 ppm): 0% | TLB Obsd ([1]; 2 ppm): 90% | TLB Obsd ([1]; 10 ppm): 100% | TLB Obsd ([1]; 40 ppm): 100% | CDM Obsd (disease control rating) ([2]; component (b) alone 0.08 ppm): 47% | CDM Obsd (disease control rating) ([2]; component (b) alone 0.4 ppm): 47% | CDM Obsd (disease control rating) ([2]; component (b) alone 2 ppm): 94% | CDM Obsd (disease control rating) ([2]; component (b) alone 10 ppm): 100% | CDM Obsd (disease control rating) ([2]; component (b) alone 40 ppm): 100% | CDM Obsd ([2]; component (b) alone 0.08 ppm (Compound 1 0 ppm)): 33% | CDM Obsd ([2]; component (b) alone 0.4 ppm (Compound 1 0 ppm)): 79% | CDM Obsd ([2]; component (b) alone 2 ppm (Compound 1 0 ppm)): 96% | CDM Obsd ([2]; component (b) alone 10 ppm (Compound 1 0 ppm)): 100% | CDM Obsd ([2]; component (b) alone 40 ppm (Compound 1 0 ppm)): 100% | CDM Obsd ([2]; component (b) alone, 0.08 ppm): 0% | CDM Obsd ([2]; component (b) alone, 0.4 ppm): 0% | CDM Obsd ([2]; component (b) alone, 2 ppm): 83% | CDM Obsd ([2]; component (b) alone, 10 ppm): 100% | CDM Obsd ([2]; component (b) alone, 40 ppm): 100%
